Here are results for three compounds from ChEMBL document CHEMBL5442175, “EUbOPEN Chemogenomics Library - PDSP Secondary Binding” (2024).

What is called Ki is the dissociation constant of the complex between target and ligand, obtained from inhibition or displacement. Read a low Ki as higher affinity.

Where a name gives a salt, the structure may show the parent alone.

Assay [1] addresses 5-hydroxytryptamine receptor 7 (Homo sapiens, UniProt P34969). In words: PDSP Secondary Binding target: HTR7 - Compounds are tested at 10 uM concentration, plate are incubated at room temperature in the dark for 90 minutes. Reaction are stopped by vacuum filtration onto 0.3% polyethyleneimine soaked filter mats using Filtermate harvester. Scintillation cocktail is then melted onto microwave-dried filters on a hot plate and the radio activity is counted in Microbia counter.

Assay [2] deals with T1, Muscarinic acetylcholine receptor M5 (Homo sapiens, UniProt P08912).
T1 sequence (P08912 whole entry): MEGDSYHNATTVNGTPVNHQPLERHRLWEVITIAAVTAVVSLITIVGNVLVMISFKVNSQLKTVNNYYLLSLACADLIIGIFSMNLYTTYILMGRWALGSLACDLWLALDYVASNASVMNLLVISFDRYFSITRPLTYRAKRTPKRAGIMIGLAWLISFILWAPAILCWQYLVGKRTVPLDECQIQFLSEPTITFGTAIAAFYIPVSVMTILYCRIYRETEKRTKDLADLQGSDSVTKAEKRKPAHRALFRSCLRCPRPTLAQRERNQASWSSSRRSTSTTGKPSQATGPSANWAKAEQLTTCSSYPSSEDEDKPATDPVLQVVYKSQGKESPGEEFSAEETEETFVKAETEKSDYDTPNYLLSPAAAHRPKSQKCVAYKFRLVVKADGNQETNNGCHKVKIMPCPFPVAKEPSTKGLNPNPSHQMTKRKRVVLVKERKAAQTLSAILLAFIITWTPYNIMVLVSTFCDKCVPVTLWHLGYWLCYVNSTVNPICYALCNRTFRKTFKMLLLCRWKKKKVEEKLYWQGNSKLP
Description: PDSP Secondary Binding target: CHRM5 - Compounds are tested at 10 uM concentration, plate are incubated at room temperature in the dark for 90 minutes. Reaction are stopped by vacuum filtration onto 0.3% polyethyleneimine soaked filter mats using Filtermate harvester. Scintillation cocktail is then melted onto microwave-dried filters on a hot plate and the radio activity is counted in Microbia counter.

The next assay concerns the target D(1B) dopamine receptor (Homo sapiens, UniProt P21918). In words: PDSP Secondary Binding target: DRD5 - Compounds are tested at 10 uM concentration, plate are incubated at room temperature in the dark for 90 minutes. Reaction are stopped by vacuum filtration onto 0.3% polyethyleneimine soaked filter mats using Filtermate harvester. Scintillation cocktail is then melted onto microwave-dried filters on a hot plate and the radio activity is counted in Microbia counter.

Assay [3] deals with T2, 5-hydroxytryptamine receptor 1A (Homo sapiens, UniProt P08908).
T2 sequence (P08908 whole entry): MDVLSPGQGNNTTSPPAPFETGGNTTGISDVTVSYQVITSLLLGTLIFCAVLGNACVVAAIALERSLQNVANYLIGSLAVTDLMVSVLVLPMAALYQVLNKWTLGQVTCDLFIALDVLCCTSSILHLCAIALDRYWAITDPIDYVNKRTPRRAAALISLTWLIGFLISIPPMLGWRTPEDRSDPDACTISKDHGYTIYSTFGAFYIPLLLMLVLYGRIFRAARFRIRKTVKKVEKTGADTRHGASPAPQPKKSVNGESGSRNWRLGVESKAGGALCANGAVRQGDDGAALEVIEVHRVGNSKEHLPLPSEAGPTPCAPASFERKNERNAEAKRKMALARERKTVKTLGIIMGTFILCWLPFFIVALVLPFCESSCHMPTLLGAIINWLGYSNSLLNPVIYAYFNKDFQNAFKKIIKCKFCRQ
In words: PDSP Secondary Binding target: HTR1A - Compounds are tested at 10 uM concentration, plate are incubated at room temperature in the dark for 90 minutes. Reaction are stopped by vacuum filtration onto 0.3% polyethyleneimine soaked filter mats using Filtermate harvester. Scintillation cocktail is then melted onto microwave-dried filters on a hot plate and the radio activity is counted in Microbia counter.

Assay [4] addresses 5-hydroxytryptamine receptor 1B (Homo sapiens, UniProt P28222). Description: PDSP Secondary Binding target: HTR1B - Compounds are tested at 10 uM concentration, plate are incubated at room temperature in the dark for 90 minutes. Reaction are stopped by vacuum filtration onto 0.3% polyethyleneimine soaked filter mats using Filtermate harvester. Scintillation cocktail is then melted onto microwave-dried filters on a hot plate and the radio activity is counted in Microbia counter.

Assay [5] addresses 5-hydroxytryptamine receptor 1D (Homo sapiens, UniProt P28221). Description: PDSP Secondary Binding target: HTR1D - Compounds are tested at 10 uM concentration, plate are incubated at room temperature in the dark for 90 minutes. Reaction are stopped by vacuum filtration onto 0.3% polyethyleneimine soaked filter mats using Filtermate harvester. Scintillation cocktail is then melted onto microwave-dried filters on a hot plate and the radio activity is counted in Microbia counter.

For assay [6], the target named is 5-hydroxytryptamine receptor 5A (Homo sapiens, UniProt P47898). Description: PDSP Secondary Binding target: HTR5A - Compounds are tested at 10 uM concentration, plate are incubated at room temperature in the dark for 90 minutes. Reaction are stopped by vacuum filtration onto 0.3% polyethyleneimine soaked filter mats using Filtermate harvester. Scintillation cocktail is then melted onto microwave-dried filters on a hot plate and the radio activity is counted in Microbia counter.
5-hydroxytryptamine receptor 5A, sequence (P47898 whole entry): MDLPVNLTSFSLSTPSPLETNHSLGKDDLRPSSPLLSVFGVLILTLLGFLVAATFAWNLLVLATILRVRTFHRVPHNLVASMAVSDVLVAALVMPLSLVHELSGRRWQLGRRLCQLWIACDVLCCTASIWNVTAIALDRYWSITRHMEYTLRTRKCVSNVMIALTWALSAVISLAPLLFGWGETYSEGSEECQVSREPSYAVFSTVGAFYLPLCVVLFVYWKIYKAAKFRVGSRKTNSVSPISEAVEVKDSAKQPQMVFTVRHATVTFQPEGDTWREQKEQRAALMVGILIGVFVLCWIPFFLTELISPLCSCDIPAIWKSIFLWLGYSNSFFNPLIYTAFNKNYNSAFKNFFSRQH

Assay [7] has as its target Sodium-dependent noradrenaline transporter (Homo sapiens, UniProt P23975). Description: PDSP Secondary Binding target: SLC6A2 - Compounds are tested at 10 uM concentration, plate are incubated at room temperature in the dark for 90 minutes. Reaction are stopped by vacuum filtration onto 0.3% polyethyleneimine soaked filter mats using Filtermate harvester. Scintillation cocktail is then melted onto microwave-dried filters on a hot plate and the radio activity is counted in Microbia counter.

Assay [8] concerns the target Sigma intracellular receptor 2 (Homo sapiens, UniProt Q5BJF2). In words: PDSP Secondary Binding target: TMEM97 - Compounds are tested at 10 uM concentration, plate are incubated at room temperature in the dark for 90 minutes. Reaction are stopped by vacuum filtration onto 0.3% polyethyleneimine soaked filter mats using Filtermate harvester. Scintillation cocktail is then melted onto microwave-dried filters on a hot plate and the radio activity is counted in Microbia counter.

The target in assay [9] is Sodium-dependent dopamine transporter (Homo sapiens, UniProt Q01959). In words: PDSP Secondary Binding target: SLC6A3 - Compounds are tested at 10 uM concentration, plate are incubated at room temperature in the dark for 90 minutes. Reaction are stopped by vacuum filtration onto 0.3% polyethyleneimine soaked filter mats using Filtermate harvester. Scintillation cocktail is then melted onto microwave-dried filters on a hot plate and the radio activity is counted in Microbia counter.
Sodium-dependent dopamine transporter, sequence (Q01959 whole entry): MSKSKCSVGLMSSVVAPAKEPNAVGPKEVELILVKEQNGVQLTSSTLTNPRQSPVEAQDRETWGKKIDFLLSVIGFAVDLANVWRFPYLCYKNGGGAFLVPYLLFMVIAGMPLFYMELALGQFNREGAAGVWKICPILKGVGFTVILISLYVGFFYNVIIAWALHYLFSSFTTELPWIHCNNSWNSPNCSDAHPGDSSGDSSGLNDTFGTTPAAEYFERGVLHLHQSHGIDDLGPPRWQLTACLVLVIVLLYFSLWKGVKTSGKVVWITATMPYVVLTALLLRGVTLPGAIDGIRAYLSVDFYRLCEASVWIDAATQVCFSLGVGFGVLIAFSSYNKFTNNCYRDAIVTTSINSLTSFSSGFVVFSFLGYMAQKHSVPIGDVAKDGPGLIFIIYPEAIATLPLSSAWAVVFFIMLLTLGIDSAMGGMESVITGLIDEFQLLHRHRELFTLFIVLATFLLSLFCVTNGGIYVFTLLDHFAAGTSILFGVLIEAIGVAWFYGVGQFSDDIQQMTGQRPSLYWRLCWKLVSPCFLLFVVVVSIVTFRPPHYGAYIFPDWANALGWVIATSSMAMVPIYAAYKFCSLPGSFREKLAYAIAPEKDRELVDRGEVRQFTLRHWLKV

Assay [10] has as its target T3, Alpha-1A adrenergic receptor (Homo sapiens, UniProt P35348).
T3 sequence (P35348 whole entry): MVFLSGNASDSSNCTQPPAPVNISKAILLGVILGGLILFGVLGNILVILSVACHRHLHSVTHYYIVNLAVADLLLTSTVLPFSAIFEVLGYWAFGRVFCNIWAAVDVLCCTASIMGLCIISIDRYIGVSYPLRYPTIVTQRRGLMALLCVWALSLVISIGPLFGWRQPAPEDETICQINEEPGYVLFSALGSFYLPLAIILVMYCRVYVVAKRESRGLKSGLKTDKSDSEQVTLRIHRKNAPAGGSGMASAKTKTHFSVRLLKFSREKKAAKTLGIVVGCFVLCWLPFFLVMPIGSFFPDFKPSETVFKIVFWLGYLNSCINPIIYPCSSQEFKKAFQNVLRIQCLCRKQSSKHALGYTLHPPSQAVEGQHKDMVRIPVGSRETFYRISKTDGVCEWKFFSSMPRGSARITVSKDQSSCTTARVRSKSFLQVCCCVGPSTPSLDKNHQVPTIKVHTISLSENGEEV
Description: PDSP Secondary Binding target: ADRA1A - Compounds are tested at 10 uM concentration, plate are incubated at room temperature in the dark for 90 minutes. Reaction are stopped by vacuum filtration onto 0.3% polyethyleneimine soaked filter mats using Filtermate harvester. Scintillation cocktail is then melted onto microwave-dried filters on a hot plate and the radio activity is counted in Microbia counter.

Assay [11] deals with T4, Alpha-1B adrenergic receptor (Homo sapiens, UniProt P35368).
T4 sequence (P35368 whole entry): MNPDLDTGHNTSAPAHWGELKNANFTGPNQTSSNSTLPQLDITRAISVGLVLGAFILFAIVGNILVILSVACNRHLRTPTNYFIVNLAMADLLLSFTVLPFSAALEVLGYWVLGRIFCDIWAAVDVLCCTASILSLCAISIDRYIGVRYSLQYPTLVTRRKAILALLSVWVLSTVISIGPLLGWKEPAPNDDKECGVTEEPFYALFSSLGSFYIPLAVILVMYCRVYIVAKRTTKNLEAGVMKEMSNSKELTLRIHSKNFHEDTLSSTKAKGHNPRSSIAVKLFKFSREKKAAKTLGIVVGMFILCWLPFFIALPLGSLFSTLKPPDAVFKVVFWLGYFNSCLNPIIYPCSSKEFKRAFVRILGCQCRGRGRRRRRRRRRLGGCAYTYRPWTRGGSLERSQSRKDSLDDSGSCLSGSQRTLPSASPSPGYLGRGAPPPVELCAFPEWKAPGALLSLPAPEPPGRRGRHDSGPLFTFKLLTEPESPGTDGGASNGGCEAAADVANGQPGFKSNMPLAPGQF
In words: PDSP Secondary Binding target: ADRA1B - Compounds are tested at 10 uM concentration, plate are incubated at room temperature in the dark for 90 minutes. Reaction are stopped by vacuum filtration onto 0.3% polyethyleneimine soaked filter mats using Filtermate harvester. Scintillation cocktail is then melted onto microwave-dried filters on a hot plate and the radio activity is counted in Microbia counter.

Assay [12] addresses T5, Alpha-2C adrenergic receptor (Homo sapiens, UniProt P18825).
T5 sequence (P18825 whole entry): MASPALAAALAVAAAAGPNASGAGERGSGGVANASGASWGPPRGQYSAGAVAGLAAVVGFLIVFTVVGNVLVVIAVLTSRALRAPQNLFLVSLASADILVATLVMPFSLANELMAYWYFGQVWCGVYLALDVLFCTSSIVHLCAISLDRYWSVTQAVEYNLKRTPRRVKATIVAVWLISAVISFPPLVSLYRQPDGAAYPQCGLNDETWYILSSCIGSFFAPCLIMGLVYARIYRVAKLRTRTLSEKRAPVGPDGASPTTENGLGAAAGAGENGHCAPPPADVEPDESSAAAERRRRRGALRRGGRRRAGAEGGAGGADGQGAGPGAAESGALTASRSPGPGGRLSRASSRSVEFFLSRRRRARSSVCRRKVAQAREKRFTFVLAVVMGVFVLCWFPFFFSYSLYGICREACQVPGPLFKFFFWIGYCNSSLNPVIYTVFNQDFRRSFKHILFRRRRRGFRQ
In words: PDSP Secondary Binding target: ADRA2C - Compounds are tested at 10 uM concentration, plate are incubated at room temperature in the dark for 90 minutes. Reaction are stopped by vacuum filtration onto 0.3% polyethyleneimine soaked filter mats using Filtermate harvester. Scintillation cocktail is then melted onto microwave-dried filters on a hot plate and the radio activity is counted in Microbia counter.

Assay [13] has as its target T6, Alpha-2B adrenergic receptor (Homo sapiens, UniProt P18089).
T6 sequence (P18089 whole entry): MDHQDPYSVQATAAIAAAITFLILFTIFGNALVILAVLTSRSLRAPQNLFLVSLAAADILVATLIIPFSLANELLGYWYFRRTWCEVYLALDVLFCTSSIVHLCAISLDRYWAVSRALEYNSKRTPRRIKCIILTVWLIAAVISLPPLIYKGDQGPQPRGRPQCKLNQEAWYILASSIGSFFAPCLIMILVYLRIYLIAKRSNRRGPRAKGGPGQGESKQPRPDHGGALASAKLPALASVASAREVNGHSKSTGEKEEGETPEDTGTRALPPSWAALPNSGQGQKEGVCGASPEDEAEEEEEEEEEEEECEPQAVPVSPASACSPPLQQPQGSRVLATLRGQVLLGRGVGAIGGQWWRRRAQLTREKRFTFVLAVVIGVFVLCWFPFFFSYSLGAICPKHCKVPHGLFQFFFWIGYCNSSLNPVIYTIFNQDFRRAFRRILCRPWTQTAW
Description: PDSP Secondary Binding target: ADRA2B - Compounds are tested at 10 uM concentration, plate are incubated at room temperature in the dark for 90 minutes. Reaction are stopped by vacuum filtration onto 0.3% polyethyleneimine soaked filter mats using Filtermate harvester. Scintillation cocktail is then melted onto microwave-dried filters on a hot plate and the radio activity is counted in Microbia counter.

In another assay the target is Translocator protein (Homo sapiens, UniProt P30536). In words: PDSP Secondary Binding target: TSPO - Compounds are tested at 10 uM concentration, plate are incubated at room temperature in the dark for 90 minutes. Reaction are stopped by vacuum filtration onto 0.3% polyethyleneimine soaked filter mats using Filtermate harvester. Scintillation cocktail is then melted onto microwave-dried filters on a hot plate and the radio activity is counted in Microbia counter.
Translocator protein, sequence (P30536 whole entry): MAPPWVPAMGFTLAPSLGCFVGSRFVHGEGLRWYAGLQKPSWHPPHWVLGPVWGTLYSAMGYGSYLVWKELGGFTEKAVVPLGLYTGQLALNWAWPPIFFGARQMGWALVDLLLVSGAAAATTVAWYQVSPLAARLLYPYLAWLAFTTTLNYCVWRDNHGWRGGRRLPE

5-hydroxytryptamine receptor 7, sequence (P34969 whole entry): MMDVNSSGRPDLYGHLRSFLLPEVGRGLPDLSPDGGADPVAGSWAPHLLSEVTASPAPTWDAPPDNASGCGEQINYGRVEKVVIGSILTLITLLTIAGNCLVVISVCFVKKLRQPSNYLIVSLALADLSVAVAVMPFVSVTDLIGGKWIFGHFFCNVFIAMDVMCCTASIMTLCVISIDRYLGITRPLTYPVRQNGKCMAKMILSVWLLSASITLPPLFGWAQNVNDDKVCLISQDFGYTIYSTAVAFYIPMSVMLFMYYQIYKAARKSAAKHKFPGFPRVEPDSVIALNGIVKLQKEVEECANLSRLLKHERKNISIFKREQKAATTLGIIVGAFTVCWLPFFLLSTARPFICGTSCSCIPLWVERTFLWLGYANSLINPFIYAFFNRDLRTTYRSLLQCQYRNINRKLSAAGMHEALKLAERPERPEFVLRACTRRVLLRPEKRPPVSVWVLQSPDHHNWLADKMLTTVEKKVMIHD
Sodium-dependent noradrenaline transporter, sequence (P23975 whole entry): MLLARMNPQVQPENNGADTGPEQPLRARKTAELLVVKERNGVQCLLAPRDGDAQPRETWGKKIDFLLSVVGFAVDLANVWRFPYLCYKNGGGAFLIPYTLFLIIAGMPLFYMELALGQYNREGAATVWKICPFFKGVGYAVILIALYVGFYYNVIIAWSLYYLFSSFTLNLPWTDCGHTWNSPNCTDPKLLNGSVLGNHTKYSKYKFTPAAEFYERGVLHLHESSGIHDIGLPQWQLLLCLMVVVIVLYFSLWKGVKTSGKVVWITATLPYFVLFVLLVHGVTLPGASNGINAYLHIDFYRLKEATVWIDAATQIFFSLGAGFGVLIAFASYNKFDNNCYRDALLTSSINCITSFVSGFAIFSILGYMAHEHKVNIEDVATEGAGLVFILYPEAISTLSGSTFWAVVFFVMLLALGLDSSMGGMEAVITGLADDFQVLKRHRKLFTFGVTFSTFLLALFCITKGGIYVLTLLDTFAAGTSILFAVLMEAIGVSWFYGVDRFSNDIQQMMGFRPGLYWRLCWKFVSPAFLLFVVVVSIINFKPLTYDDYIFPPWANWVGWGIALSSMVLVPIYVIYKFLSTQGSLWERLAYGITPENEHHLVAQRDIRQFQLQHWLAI
Sigma intracellular receptor 2, sequence (Q5BJF2 whole entry): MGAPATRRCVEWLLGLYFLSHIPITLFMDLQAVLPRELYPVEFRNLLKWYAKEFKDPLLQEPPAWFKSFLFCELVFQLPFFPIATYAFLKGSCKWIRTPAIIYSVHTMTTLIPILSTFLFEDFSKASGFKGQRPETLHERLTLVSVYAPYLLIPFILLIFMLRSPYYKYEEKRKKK
5-hydroxytryptamine receptor 1D, sequence (P28221 whole entry): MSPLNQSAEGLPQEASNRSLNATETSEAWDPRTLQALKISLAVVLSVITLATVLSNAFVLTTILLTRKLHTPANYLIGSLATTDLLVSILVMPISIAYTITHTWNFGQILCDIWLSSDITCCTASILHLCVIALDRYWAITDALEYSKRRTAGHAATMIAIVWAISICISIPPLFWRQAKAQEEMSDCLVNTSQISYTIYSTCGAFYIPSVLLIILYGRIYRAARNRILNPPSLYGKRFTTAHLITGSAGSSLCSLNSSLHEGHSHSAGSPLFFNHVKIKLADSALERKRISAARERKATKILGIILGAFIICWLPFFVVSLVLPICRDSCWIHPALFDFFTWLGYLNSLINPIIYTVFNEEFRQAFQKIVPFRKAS
5-hydroxytryptamine receptor 1B, sequence (P28222 whole entry): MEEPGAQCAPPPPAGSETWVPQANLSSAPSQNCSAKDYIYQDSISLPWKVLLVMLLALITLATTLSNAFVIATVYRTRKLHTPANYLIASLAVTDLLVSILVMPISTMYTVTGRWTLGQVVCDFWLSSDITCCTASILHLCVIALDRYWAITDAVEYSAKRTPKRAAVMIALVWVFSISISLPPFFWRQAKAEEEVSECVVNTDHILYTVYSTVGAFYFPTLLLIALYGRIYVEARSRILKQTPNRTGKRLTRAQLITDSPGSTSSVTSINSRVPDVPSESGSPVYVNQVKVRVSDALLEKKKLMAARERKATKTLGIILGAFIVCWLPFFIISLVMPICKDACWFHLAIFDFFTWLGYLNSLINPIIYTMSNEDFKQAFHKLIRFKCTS
D(1B) dopamine receptor, sequence (P21918 whole entry): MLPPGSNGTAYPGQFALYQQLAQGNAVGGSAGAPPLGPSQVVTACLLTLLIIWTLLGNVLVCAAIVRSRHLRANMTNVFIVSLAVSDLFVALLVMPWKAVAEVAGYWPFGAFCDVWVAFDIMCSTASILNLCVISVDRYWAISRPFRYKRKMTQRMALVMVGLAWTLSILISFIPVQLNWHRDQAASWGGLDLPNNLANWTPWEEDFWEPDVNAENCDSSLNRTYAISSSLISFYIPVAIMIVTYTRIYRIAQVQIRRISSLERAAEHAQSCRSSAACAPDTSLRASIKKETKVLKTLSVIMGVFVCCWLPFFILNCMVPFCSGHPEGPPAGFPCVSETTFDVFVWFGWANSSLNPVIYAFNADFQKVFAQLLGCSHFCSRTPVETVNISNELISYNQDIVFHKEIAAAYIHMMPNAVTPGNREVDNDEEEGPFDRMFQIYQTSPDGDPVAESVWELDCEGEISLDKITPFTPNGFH

On to `O=C(O)c1cc(-c2ccc(C3CCNCC3)cc2)c2ccc(-c3ccc(C(F)(F)F)cc3)cc2c1`, for which the Ki in [1] was 3.3 µM; in assay [2], 2.19 µM; at D(1B) dopamine receptor, 1.05 µM; in assay [3] it was 2.54 µM; in assay [4] it was 1.16 µM; in [5], 1.19 µM. Moreover, the Ki in assay [6] came to 2.4 µM; in [7] it was 1.85 µM; in assay [8], 1.06 µM; in assay [9], 1.22 µM.

For `Cc1cccc([C@H](C)c2cnc[nH]2)c1C` [DEXMEDETOMIDINE HYDROCHLORIDE], the Ki in assay [1] was found to be 0.923 µM; in assay [10] it was 0.749 µM; in assay [11], 2.98 µM; in assay [12], 0.0394 µM; in [7], 3.26 µM; in assay [13], 0.0121 µM.

As to `COc1ccnc(N2CCC3(CCCN(Cc4c[nH]c5ccccc45)C3=O)CC2)n1`, the inhibitory constant (Ki) in assay [2] was greater than 10 µM; in assay [3], 3.26 µM; on Translocator protein, 0.803 µM.
